# Laboratory results published in patent US20130310379A1, “MODULATORS OF METHYL MODIFYING ENZYMES, COMPOSITIONS AND USES THEREOF” (CONSTELLATION PHARMACEUTICALS, priority 2010, published 2013).
# Biological target: EZH2 (Homo sapiens, UniProt Q15910)
# Experiment: EZH2 assay: rPRC2 with biotinylated oligonucleosome substrates and 3H SAM, FlashPlate scintillation counting, IC50
# Format: biochemical
# Details: rPRC2, biotinylated oligonucleosome substrates, 3H SAM; read-out: EZH2 IC50
# Description: Assays were carried out by mixing rPRC2 together with biotinylated oligonucleosome substrates in the presence of the radio-labeled enzyme co-factor, S-adenosyl-L-methionine (^3H SAM) (Perkin Elmer) and monitoring the enzymatically mediated transfer of tritiated methyl groups from ^3H SAM to histone lysine residues. The amount of resulting tritated methylhistone product was measured by first capturing the biotinylated oligonuclesomes in streptavidin (SAV) coated FlashPlates (Perkin Elmer), followed by a wash step to remove un-reacted ^3H SAM, and then counting on a TopCount NXT 384 well plate scintillation counter (Perkin Elmer). The final assay conditions for EZH2 were as follows: 50 mM Tris Buffer pH 8.5, 1 mM DTT, 69 uM Brij-35 detergent, 5.0 mM MgCl2, 0.1 mg/mL BSA, 0.2 uM ^3H SAM, 0.2 uM biotinylated oligonucleosomes, 3.6 uM H3K27me3 peptide and 2 nM EZH2.
# Compound IC50 measurements were obtained as follows: Compounds were first dissolved in 100% DMSO as 10 mM stock solutions. […] A 12.5 uL volume of the HMT enzyme, H3K27me3 peptide and oligonucleosome substrate in assay buffer was added to each well of the assay plate using a Multidrop Combi (ThermoFisher). Compounds were pre-incubated with the enzyme for 20 min, followed by initiation of the methyltransferase reaction by addition of 12.5 uL of 3H SAM in assay buffer (final volume=25 uL). The final concentrations of compounds ranged from a top default concentration of 80 uM down to 0.16 uM in ten 2-fold dilution steps. Reactions were carried out for 60 minutes and quenched with 20 uL per well of 1.96 mM SAH, 50 mM Tris PH 8.5, 200 mM EDTA. Stopped reactions were transferred to SAV coated Flashplates (Perkin Elmer), incubated for 120 min, washed with a plate washer, and then read on the TopCount NXT (1.0 min/well) to measure the amount of methylhistone product formed during the reaction. The amount of methylhistone product was compared with the amount of product formed in the 0% and 100% inhibition control wells allowing the calculation of % Inhibition in the presence of the individual compounds at various concentrations. IC50's were computed using a 4 parameter fit non-linear curve fitting software package (XLFIT, part of the database package, ActivityBase (IDBS)) where the four parameters were IC50, Hill slope, pre-transitional baseline (0% INH), and post-transitional baseline (100% INH); with the latter two parameters being fixed to zero and 100%, respectively, by default.
# EZH2, sequence (Q15910 whole entry): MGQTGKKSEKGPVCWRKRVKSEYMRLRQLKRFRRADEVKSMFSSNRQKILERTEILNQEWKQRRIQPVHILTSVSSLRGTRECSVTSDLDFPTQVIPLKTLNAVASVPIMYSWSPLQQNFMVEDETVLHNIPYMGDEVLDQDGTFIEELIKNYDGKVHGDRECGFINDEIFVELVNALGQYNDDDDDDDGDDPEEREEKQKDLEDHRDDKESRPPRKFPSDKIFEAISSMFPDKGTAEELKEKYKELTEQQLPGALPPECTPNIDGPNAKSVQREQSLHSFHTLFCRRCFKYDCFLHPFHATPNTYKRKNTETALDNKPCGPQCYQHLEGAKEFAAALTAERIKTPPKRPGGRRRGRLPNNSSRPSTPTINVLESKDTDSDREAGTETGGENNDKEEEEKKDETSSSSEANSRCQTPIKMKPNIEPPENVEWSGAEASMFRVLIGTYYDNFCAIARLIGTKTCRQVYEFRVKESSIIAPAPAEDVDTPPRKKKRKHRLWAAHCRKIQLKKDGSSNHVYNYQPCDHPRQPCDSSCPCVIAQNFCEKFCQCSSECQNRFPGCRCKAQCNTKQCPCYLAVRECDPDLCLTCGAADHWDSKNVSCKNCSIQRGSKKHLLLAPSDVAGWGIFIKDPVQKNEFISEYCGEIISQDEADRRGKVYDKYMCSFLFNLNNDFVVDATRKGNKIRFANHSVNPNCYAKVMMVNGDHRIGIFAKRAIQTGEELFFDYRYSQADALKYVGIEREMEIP
# EZH2, sequence (O75530 whole entry partner): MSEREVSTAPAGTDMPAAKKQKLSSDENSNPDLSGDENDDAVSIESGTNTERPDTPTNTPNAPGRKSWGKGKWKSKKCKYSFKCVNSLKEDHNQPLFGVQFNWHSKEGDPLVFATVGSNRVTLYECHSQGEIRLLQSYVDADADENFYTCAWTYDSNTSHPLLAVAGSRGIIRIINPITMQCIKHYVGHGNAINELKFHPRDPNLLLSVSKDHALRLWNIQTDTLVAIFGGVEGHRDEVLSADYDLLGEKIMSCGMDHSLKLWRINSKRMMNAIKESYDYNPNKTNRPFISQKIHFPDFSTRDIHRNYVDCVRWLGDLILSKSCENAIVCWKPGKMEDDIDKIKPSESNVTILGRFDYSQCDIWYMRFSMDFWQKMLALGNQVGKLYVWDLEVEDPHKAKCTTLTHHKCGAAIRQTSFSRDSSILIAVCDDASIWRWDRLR
# EZH2, sequence (Q15022 whole entry partner): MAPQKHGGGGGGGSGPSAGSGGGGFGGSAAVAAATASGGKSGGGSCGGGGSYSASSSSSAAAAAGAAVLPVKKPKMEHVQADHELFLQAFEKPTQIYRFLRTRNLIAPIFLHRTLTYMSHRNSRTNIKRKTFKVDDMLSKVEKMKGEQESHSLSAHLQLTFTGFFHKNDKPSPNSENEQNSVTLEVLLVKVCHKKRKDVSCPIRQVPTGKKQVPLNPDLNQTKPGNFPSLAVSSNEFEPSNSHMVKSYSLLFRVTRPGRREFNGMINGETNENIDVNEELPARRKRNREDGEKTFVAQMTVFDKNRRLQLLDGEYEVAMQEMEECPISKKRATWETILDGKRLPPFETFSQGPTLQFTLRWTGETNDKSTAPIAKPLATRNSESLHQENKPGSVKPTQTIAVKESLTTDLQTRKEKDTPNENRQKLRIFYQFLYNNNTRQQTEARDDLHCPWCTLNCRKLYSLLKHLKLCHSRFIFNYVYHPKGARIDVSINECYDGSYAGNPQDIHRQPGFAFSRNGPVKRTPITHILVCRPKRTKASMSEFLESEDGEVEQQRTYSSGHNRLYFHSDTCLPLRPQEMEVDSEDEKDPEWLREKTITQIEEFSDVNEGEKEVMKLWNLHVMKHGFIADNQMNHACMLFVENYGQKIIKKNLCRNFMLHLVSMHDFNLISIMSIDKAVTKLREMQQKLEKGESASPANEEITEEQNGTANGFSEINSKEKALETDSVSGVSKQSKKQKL
row,Compound,IC50
1,CC1(C)CC(NC(=O)c2ccc(N3CCOC(c4ccccc4)C3)c(Cl)c2)CC(C)(C)N1 (stereo not drawn) [Compound I-416],> 80 µM
2,COC(=O)c1cccc(COc2ccc(C(=O)NC3CC(C)(C)NC(C)(C)C3)cc2)c1 [Compound I-53],20 to 80 µM
3,COc1cc(Oc2ccccc2)ccc1C(=O)NC1CC(C)(C)NC(C)(C)C1 [Compound I-204],> 80 µM
4,CC1(C)CC(NC(=O)c2ccc([S+]([O-])c3ccccc3)cc2)CC(C)(C)N1 (stereo not drawn) [Compound I-355],> 80 µM
5,CC1(C)CC(NC(=O)c2ccc(OCc3cccc(F)c3)cc2)CC(C)(C)N1 [Compound I-88],> 80 µM
6,CC(C)Oc1ccc(C(=O)NC2CC(C)(C)NC(C)(C)C2)cc1 [Compound I-136],> 80 µM
7,"Cc1cccc(OCc2ccc(C(=O)NC3CC(C)(C)NC(C)(C)C3)cc2)n1 [Compound I-85, 4-((6-methylpyridin-2-yloxy)methyl)-N-(2,2,6,6-tetramethylpiperidin-4-yl)benzamide]",> 80 µM
8,CC1(C)CC(NC(=O)c2ccc(COc3ccccc3C#N)cc2)CC(C)(C)N1 [Compound I-240],> 80 µM
9,Cc1ccc(OCc2ccc(C(=O)NC3CC(C)(C)NC(C)(C)C3)cc2)c(C)c1 [Compound I-42],20 to 80 µM
10,N#CCCN1CCC(NC(=O)c2ccc(Oc3cccc(-c4ccnnc4)c3C#N)c(Cl)c2)CC1 [Compound I-485],20 to 80 µM
11,"CC1(C)CC(NC(=O)c2ccc(SCc3ccccc3)cc2)CC(C)(C)N1 [Compound I-45, 4-(Benzylthio)-N-(2,2,6,6-tetramethylpiperidin-4-yl)benzamide]",20 to 80 µM
12,Cc1ccc(Oc2ccc(C(=O)NC3CC(C)(C)NC(C)(C)C3)cc2)cc1C [Compound I-87],> 80 µM
13,Cc1ccccc1Sc1ccc(C(=O)NC2CC(C)(C)NC(C)(C)C2)cc1Cl [Compound I-302],20 to 80 µM
14,Cc1ccc(OCc2ccc(C(=O)NC3CC(C)(C)NC(C)(C)C3)cc2)cc1 [Compound I-22],20 to 80 µM
15,CC1(C)CC(NC(=O)c2ccc3oc4c(C#N)cccc4c3c2)CC(C)(C)N1 [Compound I-187],20 to 80 µM
16,CC1(C)CC(NC(=O)c2ccc(COc3cccc(N4CCCNCC4)c3)cc2)CC(C)(C)N1 [Compound I-166],> 80 µM
17,CN(C)CCNC(=O)c1ccc(Oc2ccccc2)cc1 [Compound I-132],> 80 µM
18,CC1(C)CC(NC(=O)c2cccc(COc3ccccc3)c2)CC(C)(C)N1 [Compound I-111],> 80 µM

row,Compound,IC50
1,Cc1cc(-c2cccc(OCc3ccc(C(=O)NC4CC(C)(C)NC(C)(C)C4)cc3)c2)cnc1F [Compound I-27],20 to 80 µM
2,CC1(C)CC(NC(=O)c2ccc(OC3CCNC3)c(Cl)c2)CC(C)(C)N1 (stereo not drawn) [Compound I-411],> 80 µM
3,CCc1ccccc1Oc1ccc(C(=O)NC2CC(C)(C)NC(C)(C)C2)cc1 [Compound I-35],20 to 80 µM
4,CC1(C)CC(NC(=O)N2CCN(Cc3ccccc3C#N)C(=O)C2)CC(C)(C)N1 [Compound I-448],> 80 µM
5,CC1(C)CC(NC(=O)c2ccc(N3CCOc4ccccc43)cc2)CC(C)(C)N1 [Compound I-440],> 80 µM
6,CC(c1ccccc1C#N)N1CCN(C(=O)NC2CC(C)(C)NC(C)(C)C2)CC1=O (stereo not drawn) [Compound I-484],> 80 µM
7,CC1(C)CC(NC(=O)c2cccc(Oc3ccccc3)c2)CC(C)(C)N1 [Compound I-94],> 80 µM
8,CC1(C)CC(NC(=O)c2ccc(COc3ccccc3)cc2)CC(C)(C)N1 [Compound I-39],20 to 80 µM
9,CC1(C)CC(C(=O)Nc2ccc(Oc3ccccc3)cc2)CC(C)(C)N1 [Compound I-192],> 80 µM
10,O=C(NC1CCCCC1)c1ccc(Oc2ccccc2)cc1 [Compound I-134],> 80 µM
11,N#Cc1ccccc1Oc1ccc(C(=O)NC2CCN(CCN)CC2)cc1Cl [Compound I-460],> 80 µM
12,CC1(C)CC(NC(=O)c2cccc(COc3cccc(Br)c3)c2)CC(C)(C)N1 [Compound I-130],> 80 µM
13,CC1(C)CC(NC(=O)c2ccc(Oc3cccc(OCc4ccccc4)c3)cc2)CC(C)(C)N1 [Compound I-168],20 to 80 µM
14,CC1(C)CC(NC(=O)c2ccc(COc3cccc(-c4ccc(=O)[nH]c4)c3)cc2)CC(C)(C)N1 [Compound I-65],20 to 80 µM
15,CC(O)c1ccccc1Oc1ccc(C(=O)NC2CC(C)(C)NC(C)(C)C2)cc1 (stereo not drawn) [Compound I-287],20 to 80 µM
16,"CC1(C)CC(NC(=O)c2ccc(Nc3ccccc3)nc2)CC(C)(C)N1 [Compound I-104, 6-(Phenylamino)-N-(2,2,6,6-tetramethylpiperidin-4-yl)nicotinamide]",> 80 µM
17,CC1(C)CC(NC(=O)c2ccc(Oc3ccncc3)cc2)CC(C)(C)N1 [Compound I-319],> 80 µM
18,CN(C)CCCNC(=O)c1ccc(Oc2ccccc2)cc1 [Compound I-140],> 80 µM

# More lines, now with the values ahead:
row,IC50,Compound
1,< 5 µM,CC1(C)CC(NC(=O)c2ccc(Oc3cccc(-c4cn[nH]c4)c3C#N)c(C3CC3)c2)CC(C)(C)N1 [Compound I-439]
2,< 5 µM,CC1(C)CC(NC(=O)c2ccc(COc3cccc4ccccc34)cc2)CC(C)(C)N1 [Compound I-4]
3,5 to 20 µM,CNC(C)c1cccc(Oc2ccc(C(=O)NC3CC(C)(C)NC(C)(C)C3)cc2Cl)c1 (stereo not drawn) [Compound I-443]
4,< 5 µM,CC1(C)CC(NC(=O)c2ccc(Oc3cccc(-c4ccc(N5CCNCC5)nc4)c3C#N)c(Cl)c2)CC(C)(C)N1 [Compound I-549]
5,5 to 20 µM,CC1(C)CC(NC(=O)c2ccc(COc3cccc(Br)c3)cc2)CC(C)(C)N1 [Compound I-8]
6,< 5 µM,CC1(C)CC(NC(=O)c2ccc(Oc3ccccc3-c3cccs3)c(Cl)c2)CC(C)(C)N1 [Compound I-277]
7,5 to 20 µM,CC1(C)CC(NC(=O)c2ccc(COc3cccc4ncccc34)cc2)CC(C)(C)N1 [Compound I-190]
8,< 5 µM,CC1(C)CC(NC(=O)c2ccc(Oc3cccc(CC#N)c3)c(Cl)c2)CC(C)(C)N1 [Compound I-451]
9,< 5 µM,CC1(C)CC(NC(=O)c2ccc(Oc3cccc(-c4cccc(C#N)c4)c3C#N)c(Cl)c2)CC(C)(C)N1 [Compound I-505]
10,< 5 µM,CC1(C)CC(NC(=O)c2ccc(Oc3cccc(C4CCOCC4)c3C#N)c(Cl)c2)CC(C)(C)N1 [Compound I-531]
11,< 5 µM,CC1(C)CC(NC(=O)c2ccc(Oc3ccccc3C#N)c(Cl)c2)CC(C)(C)N1 [Compound I-2]
12,< 5 µM,CC1(C)CC(NC(=O)c2ccc(COc3cccc(-c4cnc5[nH]ccc5c4)c3)cc2)CC(C)(C)N1 [Compound I-5]
13,5 to 20 µM,CC1(C)CC(NC(=O)c2ccc(COc3cccc4cnccc34)cc2)CC(C)(C)N1 [Compound I-182]
14,5 to 20 µM,CNCc1cccc(Oc2ccc(C(=O)NC3CC(C)(C)NC(C)(C)C3)cc2)c1 [Compound I-236]
15,5 to 20 µM,CC1(C)CC(NC(=O)c2ccc(Oc3cccc(CN4CCCCC4)c3C#N)cc2)CC(C)(C)N1 [Compound I-283]
16,< 5 µM,Cc1ccc(-c2ccccc2Oc2ccc(C(=O)NC3CC(C)(C)NC(C)(C)C3)cc2Cl)cn1 [Compound I-295]
17,5 to 20 µM,CC1(C)CC(NC(=O)c2ccc(Oc3ccccc3C3CCCCC3)c(Cl)c2)CC(C)(C)N1 [Compound I-195]
18,< 5 µM,CC1(C)CC(NC(=O)c2ccc(Oc3cccc(-c4ccn[nH]4)c3C#N)c(Cl)c2)CC(C)(C)N1 [Compound I-338]
19,5 to 20 µM,Cc1ccncc1-c1ccccc1Oc1ccc(C(=O)NC2CC(C)(C)NC(C)(C)C2)cc1Cl [Compound I-297]
20,< 5 µM,CC1(C)CC(NC(=O)c2ccc(Oc3cccc(C4CCNCC4)c3C#N)cc2)CC(C)(C)N1 [Compound I-534]
21,5 to 20 µM,Cc1ccc(OCc2ccc(C(=O)NC3CC(C)(C)NC(C)(C)C3)cc2)cc1C [Compound I-15]
22,< 5 µM,CC(=O)Nc1ccc(-c2cccc(OCc3ccc(C(=O)NC4CC(C)(C)NC(C)(C)C4)cc3)c2)cn1 [Compound I-593]
23,5 to 20 µM,CC1(C)CC(NC(=O)c2ccc(N3CCc4cccc(O)c4C3=O)c(Cl)c2)CC(C)(C)N1 [Compound I-498]
24,< 5 µM,CC1(C)CC(NC(=O)c2ccc(Oc3ccccc3OCc3ccccc3)c(Cl)c2)CC(C)(C)N1 [Compound I-194]
25,< 5 µM,CC1CC(NC(=O)c2ccc(Oc3cccc(-c4ccnnc4)c3C#N)c(Cl)c2)CC(C)N1 (stereo not drawn) [Compound I-472]
26,< 5 µM,CC1(C)CC(C#N)(NC(=O)c2ccc(Oc3cccc(-c4ccnnc4)c3C#N)c(Cl)c2)CC(C)(C)N1 [Compound I-456]
27,< 5 µM,CNC(=O)Cn1cc(-c2cccc(Oc3ccc(C(=O)NC4CC(C)(C)NC(C)(C)C4)cc3Cl)c2C#N)cn1 [Compound I-387]
